The results in this text go back to ChEMBL document CHEMBL1201862, “PubChem BioAssay data set” (2004).

The structures appear in SMILES notation.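 96-well plates; 48 h exposure; 5 concentrations. Endpoints by linear interpolation between flanking doses. Not reached: highest tested concentration assigned. GI50 is the concentration that inhibits growth by half.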 Calls of active or inactive are those of the source. Rule as the data show it: active = GI50 up to about 1.1 µM and inactive = higher.

Test systems include CCRF-CEM; A549; MDA-N; SNB-75; 786-0; SF-268; OVCAR-5; NCI-H460; UO-31; SK-MEL-28; MDA-MB-435; SR; OVCAR-3; K562; RXF 393; MDA-MB-231; NCI/ADR-RES; HL-60; UACC-62; EKVX.
Experiment in all cases: inhibition of tumour cell growth, NCI panel, 48 h

As for `CC(=O)C1C(=O)C(C(C)=O)C2C3C=CC(C3)C12` (stereo unspecified), the GI50 in the test on CCRF-CEM, in the test on A549, in the test on MDA-N, in the test on SNB-75, in the test on 786-0 and in the test with SF-268 was > 100 µM (inactive) throughout. The GI50 in the test with OVCAR-5, in the test on NCI-H460, with UO-31, in the test on SK-MEL-28, in the test with MDA-MB-435 and with SR was > 100 µM (inactive) each time. In addition, the GI50 with OVCAR-3, in the test on K562, with RXF 393, with MDA-MB-231, with NCI/ADR-RES and with HL-60 was > 100 µM (inactive) throughout. The GI50 in the test on UACC-62 is > 100 µM (inactive).

For the molecule `Cc1ccccc1-n1c(=O)nc2n(-c3ccc(C(C)(C)C)cc3)c3ccccc3cc-2c1=O`, the GI50 in the test on CCRF-CEM is 19.8 µM (inactive); in the test on A549, 31.3 µM (inactive); with MDA-N, 22.6 µM (inactive); in the test on SNB-75, 22.3 µM (inactive); in the test with 786-0 it was 24.4 µM (inactive); in the test with SF-268, 27.5 µM (inactive). Also, the GI50 with OVCAR-5 is 25.9 µM (inactive); in the test on NCI-H460 it was 15.3 µM (inactive); in the test with UO-31 it was 26.4 µM (inactive); in the test on SK-MEL-28, 15.3 µM (inactive); with MDA-MB-435 it was 11.3 µM (inactive); in the test with SR it was 30.1 µM (inactive). Besides, the GI50 in the test on OVCAR-3 was 18.4 µM (inactive); with K562, 37.8 µM (inactive); in the test on RXF 393 it was 21.8 µM (inactive); in the test on MDA-MB-231, 19 µM (inactive); in the test on NCI/ADR-RES, 16.7 µM (inactive); with HL-60 it was 20.3 µM (inactive). Also, the GI50 with EKVX is 22.4 µM (inactive); with UACC-62, 19.2 µM (inactive).

Regarding `COc1cc(C2C3=C(COC3=O)Oc3cc4c(cc32)OCO4)ccc1OC(C)=O` (stereo unspecified), the GI50 in the test with CCRF-CEM was 0.35 µM (active); with A549, 0.957 µM (active); in the test on MDA-N, 0.0467 µM (active); in the test on SNB-75, 0.168 µM (active); in the test on 786-0 it was 0.521 µM (active); in the test with SF-268 it was 1.09 µM (active). Moreover, the GI50 is 5.22 µM (inactive) in the test with OVCAR-5; 0.45 µM (active) in the test with NCI-H460; 0.352 µM (active) in the test with UO-31; 10.8 µM (inactive) in the test on SK-MEL-28; 0.0263 µM (active) in the test with MDA-MB-435; 0.179 µM (active) in the test with SR. The GI50 in the test on OVCAR-3 was 0.244 µM (active); with K562, 0.13 µM (active); with RXF 393, 0.67 µM (active); in the test with MDA-MB-231 it was 0.436 µM (active); with NCI/ADR-RES, 0.279 µM (active); with HL-60, 0.188 µM (active). The GI50 with EKVX was 1.21 µM (inactive); in the test with UACC-62, 0.54 µM (active).

For the molecule `ClCCN1CCO/C1=N/c1ccc2c(c1)CCCC2`, the GI50 in the test with CCRF-CEM was 11.3 µM (inactive); in the test with A549, 13.8 µM (inactive); in the test with MDA-N it was 10.8 µM (inactive); in the test on SNB-75, 13.3 µM (inactive); with 786-0, 16.2 µM (inactive); in the test on SF-268 it was 14.7 µM (inactive). The GI50 was 17.3 µM (inactive) in the test on OVCAR-5; 18.8 µM (inactive) in the test on NCI-H460; 14 µM (inactive) in the test on UO-31; 14.1 µM (inactive) in the test on SK-MEL-28; 10.5 µM (inactive) in the test on MDA-MB-435; 19.6 µM (inactive) in the test on SR. The GI50 in the test on OVCAR-3 is 13 µM (inactive); with K562, 6.7 µM (inactive); in the test on RXF 393, 8.39 µM (inactive); with MDA-MB-231, 13.4 µM (inactive); in the test with NCI/ADR-RES, 18.1 µM (inactive); in the test with HL-60 it was 4.25 µM (inactive). In addition, the GI50 in the test on EKVX is 14 µM (inactive); in the test on UACC-62, 11.3 µM (inactive).

As to `CC[C@@H]1/C=C/C=C/C[C@H](C)[C@@H](O)[C@](C)(O)C(=O)[C@H](C)[C@@H](O)[C@H](C)C(=O)[C@H](C)[C@@H](O)[C@H](C)/C=C/C(=O)O[C@H]2[C@@H](C)[C@@H](CC1)O[C@]1(O[C@H](CC(C)O)[C@H](C)CC1=O)[C@@H]2C` (stereo partly specified), the GI50 in the test on CCRF-CEM is 3.56 µM (inactive); in the test with A549 it was < 0.0025 µM (active); in the test on MDA-N, 3.35 µM (inactive); with SNB-75, 0.871 µM (active); in the test with 786-0, 4.79 µM (inactive); in the test on SF-268, 3.71 µM (inactive). The GI50 was 3.3 µM (inactive) in the test on OVCAR-5; 1.04 µM (active) in the test on NCI-H460; 2.81 µM (inactive) in the test with UO-31; 6 µM (inactive) in the test on SK-MEL-28; 3.26 µM (inactive) in the test with MDA-MB-435; 4.13 µM (inactive) in the test with SR. Besides, the GI50 in the test with OVCAR-3 is 2.92 µM (inactive); in the test with K562 it was < 0.0025 µM (active); in the test on RXF 393 it was 3.6 µM (inactive); in the test with MDA-MB-231, 3.72 µM (inactive); in the test with NCI/ADR-RES it was 0.598 µM (active); in the test with HL-60 it was 0.107 µM (active). In addition, the GI50 in the test with EKVX is < 0.0025 µM (active); in the test on UACC-62, 3.22 µM (inactive).

Take `COC(=O)c1cc2c(c3c1CC(Cc1ccccc1)C3=O)CCC2` (stereo unspecified): the GI50 in the test with CCRF-CEM was 36.5 µM (inactive); in the test with A549, 53.6 µM (inactive); in the test on MDA-N, > 100 µM (inactive); in the test on SNB-75, 40.9 µM (inactive); in the test with 786-0 it was 71.8 µM (inactive); in the test on SF-268 it was 91.6 µM (inactive). In addition, the GI50 in the test with OVCAR-5 was > 100 µM (inactive); in the test with NCI-H460, 71.1 µM (inactive); in the test with SK-MEL-28 it was > 100 µM (inactive); in the test on MDA-MB-435, 52.6 µM (inactive); with SR it was > 100 µM (inactive); with OVCAR-3, > 100 µM (inactive). Further, the GI50 in the test on K562 is 38.1 µM (inactive); with RXF 393 it was 90.2 µM (inactive); in the test with MDA-MB-231 it was 62.2 µM (inactive); in the test on NCI/ADR-RES it was > 100 µM (inactive); with HL-60, > 100 µM (inactive); in the test on EKVX, > 100 µM (inactive). Also, in the test with UACC-62, the GI50 is 32.7 µM (inactive).

As to `COc1ccc(/N=N/C(=O)NC(CC(C)C)C(=O)NCC(=O)O)cc1` (stereo unspecified), the GI50 is 9.31 µM (inactive) in the test with CCRF-CEM; 3.29 µM (inactive) in the test with A549; 26.6 µM (inactive) in the test on MDA-N; 89.5 µM (inactive) in the test with SNB-75; > 100 µM (inactive) with 786-0; > 43.8 µM (inactive) with SF-268. Besides, the GI50 with OVCAR-5 was 13.5 µM (inactive); with NCI-H460, 6.65 µM (inactive); in the test on UO-31 it was 1.04 µM (active); in the test on SK-MEL-28 it was 57.7 µM (inactive); in the test with MDA-MB-435 it was 1.5 µM (inactive); with SR, 19.5 µM (inactive). Moreover, the GI50 in the test on OVCAR-3 is 19.8 µM (inactive); in the test on K562, 0.451 µM (active); with RXF 393 it was > 100 µM (inactive); with MDA-MB-231 it was > 58.2 µM (inactive); with NCI/ADR-RES, 19.5 µM (inactive); with HL-60, 5.9 µM (inactive). Also, the GI50 with EKVX is 43.4 µM (inactive); in the test with UACC-62, 1.61 µM (inactive).

As to `COc1cc(C(=O)Oc2c(C#N)sc3c2c(=O)n(-c2ccccc2)c(=S)n3-c2ccccc2)cc(OC)c1OC`, the GI50 was 4.72 µM (inactive) with CCRF-CEM; 21.5 µM (inactive) in the test on A549; 20.2 µM (inactive) in the test with MDA-N; 14.4 µM (inactive) with SNB-75; 15.2 µM (inactive) in the test with 786-0; 14.3 µM (inactive) in the test with SF-268. Besides, the GI50 in the test on OVCAR-5 was 17.6 µM (inactive); with NCI-H460 it was 21.9 µM (inactive); in the test with SK-MEL-28 it was 14.2 µM (inactive); in the test on MDA-MB-435 it was 15.1 µM (inactive); in the test with SR it was > 100 µM (inactive); with OVCAR-3, 22.7 µM (inactive). The GI50 in the test on K562 was 23.5 µM (inactive); in the test with RXF 393 it was 8.99 µM (inactive); in the test with MDA-MB-231, 20.8 µM (inactive); in the test on NCI/ADR-RES, 16.6 µM (inactive); in the test on HL-60 it was 18.8 µM (inactive); with EKVX, 19.3 µM (inactive). The GI50 in the test with UACC-62 was 24.1 µM (inactive).

Consider `C1C2CC3CC1CC(Nc1nc(NC45CC6CC(CC(C6)C4)C5)nc(NC45CC6CC(CC(C6)C4)C5)n1)(C2)C3`, for which the GI50 in the test with CCRF-CEM was > 92.9 µM (inactive); in the test on A549, > 53 µM (inactive); in the test with MDA-N, 74.3 µM (inactive); in the test with SNB-75, 16.9 µM (inactive); with 786-0, > 20.8 µM (inactive); in the test on SF-268 it was > 100 µM (inactive). The GI50 in the test on OVCAR-5 is > 92.3 µM (inactive); in the test on NCI-H460, 66.4 µM (inactive); with UO-31 it was > 38.3 µM (inactive); with SK-MEL-28 it was > 31.1 µM (inactive); in the test on MDA-MB-435, > 56.4 µM (inactive); with SR, 51.2 µM (inactive). For the same molecule, the GI50 was > 23.6 µM (inactive) with OVCAR-3; > 62.5 µM (inactive) in the test with K562; 39 µM (inactive) with RXF 393; > 100 µM (inactive) in the test with MDA-MB-231; 9.31 µM (inactive) in the test with NCI/ADR-RES; 39.3 µM (inactive) in the test with HL-60. Besides, the GI50 in the test with EKVX is > 43.5 µM (inactive); with UACC-62, > 44.7 µM (inactive).

For `Cc1cccc2c1CC1(C2)Cc2c(C)cccc2C1=O` (stereo unspecified), the GI50 with CCRF-CEM is 21.3 µM (inactive); in the test on A549, 22.4 µM (inactive); in the test on MDA-N, 26.9 µM (inactive); in the test with SNB-75, 18.6 µM (inactive); with 786-0, 23.8 µM (inactive); in the test on SF-268, 26.7 µM (inactive). In addition, the GI50 with OVCAR-5 was 28.7 µM (inactive); in the test on NCI-H460 it was 22.7 µM (inactive); in the test with UO-31, 23.1 µM (inactive); with SK-MEL-28 it was 21.6 µM (inactive); with MDA-MB-435, 24.8 µM (inactive); with SR, 11.2 µM (inactive). The GI50 was 23.9 µM (inactive) with OVCAR-3; 26.5 µM (inactive) with K562; 15.6 µM (inactive) in the test with RXF 393; 23.6 µM (inactive) with MDA-MB-231; 38.1 µM (inactive) in the test with NCI/ADR-RES; 26.7 µM (inactive) in the test on HL-60. Besides, the GI50 in the test on EKVX is 16 µM (inactive).
